From patent US7276524B2, “Pyridyl alkane acid amides as cytostatics and immunosuppressives” (Astellas Deutschland GmbH, priority 1996, dated 2007)

Structure (SMILES)	melting point [°C]
O=C(CCc1cccnc1)NCCCCC1CCN(C2c3ccccc3COc3ccccc32)CC1 (centres unmarked) [compound 142, N-{4-[1-(6,11-dihydrodibenzo[b,e]oxepin-11-yl)-piperidin-4-yl]-butyl}-3-(pyridin-3-yl)-propionamide]	110 to 112
O=C(CCc1cccnc1)NCCCCC1CCN(C(=O)c2ccccc2)CC1 [compound 162, N-[4-(1-benzoylpiperidin-4-yl)-butyl]-3-(pyridin-3-yl)-propionamide]	72 to 74
CCN(CCCCC1CCN(C(c2ccccc2)c2ccccc2)CC1)C(=O)CCc1cccnc1 [compound 68, N-[4-(1-diphenylmethyl-piperidin-4-yl)-butyl]-N-ethyl-3-(pyridin-3-yl) -propionamide]	72 to 74

The next lines start with the values.

melting point [°C]	Structure (SMILES)
103 to 105	O=C(COc1cccnc1)NCCCCC1CCN(C(c2ccccc2)c2ccccc2)CC1 [compound 84, N-[4-(1-diphenylmethyl-piperidin-4-yl)-butyl]-2-(pyridin-3-yloxy)-acetamide]
112 to 114	O=C(CCc1cccnc1)NCCCCCC1CCN(C(c2ccccc2)c2ccccc2)CC1 [compound 101, N-[5-(1-diphenylmethyl-piperidin-4-yl)-pentyl]-3-(pyridin-3-yl)-propionamide]
